Source: patent publication US20180256489A1, “NATURAL FORMULATIONS” (priority 2010, published 2018)

Tests used:
[1] = Foaming by shaking in a covered glass cylinder; assay type: physicochemical; settings: Table 5; 1 wt % calculated saponins in distilled water
Method: (§1) Foaming properties of a solution of 1 wt % of the extract of the invention in water were measured by shaking 10 ml of the solution five times in a 100 ml covered glass cylinder. The volume of the generated foam was measured. Another method for measuring the foaming was performed by Moulinex LM240 blender at a maximum speed of 10 seconds for 80 ml solution. The generated foam was transferred to glass cylinder and measured. The same procedure was repeated with extracts obtained by various ethanol/water mixtures. Foaming—solution of 1 wt % of the extract in water was shaken five times in a glass cylinder as described above. The volume of the generated foam was measured. Another method for measuring the foaming was performed by Moulinex LM240 blender at a maximum speed of 10 seconds for 80 ml solution and measured in a glass cylinder, and the foaming results are detailed in Table 4 below.

[2] = Foaming by Moulinex LM240 blender; assay type: physicochemical; settings: Table 5; 1 wt % calculated saponins in distilled water
Method: as §1

[3] = tested on: erythrocytes of sheep blood; experiment: Haemolysis test (model for eye irritation); assay type: cell-based; settings: 50% haemolysis, 30 minutes in ice, 540 nm
Method: Haemolysis test (which serves as a model for eye irritation) was conducted in order to determine the safety of the products of the invention in comparison to the commercial surfactant SLES (sodium lauryl ether sulfate).
Preparation of the erythrocyte suspension: erythrocytes of sheep blood were separated by centrifugation at 1250g, for 15 minutes at room temperature, washed three times with phosphate-buffered saline solution (PBS, pH 7.4), and centrifuged twice under the same condition. The blood volume was completed with PBS. This suspension was maintained at 4° C. for up to three days.
The assay procedure: 20 μl of each sample were diluted up to 2 ml of the suspension, and were incubated with for 30 minutes in ice. The incubation was terminated by a rapid, high-speed (1800 g) centrifugation for 30 minutes. The extent of haemolysis was determined in spectrophotometrically at 540 nm against a blank (PBS). The extent of haemolysis, expressed as a percentage, was calculated as the absorbance of an erythrocyte suspension incubated with each product, relative to that of a completely haemolysed control (100%, at distilled water) at 540 nm. The Hm50 (50% haemolysis) was determined from concentration—response curves.

**Q.** Which “Foam volume by shaking” value [1] does the source give for “decyl glycoside [1 wt % Decyl glycoside]” here?
**A.** 57 (±5) ml

**Q.** And the “Foam volume by blender” value [2]?
**A.** 420 (±15) ml

**Q.** Which HM50 [3] does the source give for sodium lauryl ether sulfate [SLES] here?
**A.** 0.001 gram/100 ml
